Converted amounts (≈) assume the structure as drawn. Where only a bound is given, the exact number is not on record here.

For the series the following is noted: buffer; pH 7.4; 200.0 µM.
With `Cc1cc(=O)[nH]c(-c2ccccc2OC(F)(F)F)n1`, the solubility (kinetic) is greater than 40.5 µg/mL.

As for `O=C(N[C@@H](Cc1ccccc1)C(=O)NC1CC1)c1ccc(Cl)cc1`, the kinetic solubility came out at 6.8 µg/mL (≈ 19.8 µM).

With `CC(=O)c1ccc(N/C=C/C(=O)c2ccc(Br)cc2)cc1`, the solubility (kinetic) was found to be 0.8 µg/mL (≈ 2.32 µM). This solubility kinetic lies about 8.5-fold lower than the previous one. Then `Cc1ccc(NC(=O)C2CC(=O)N(C(C)c3ccccc3)C2)cc1` (stereo not drawn), with greater than 48.4 µg/mL.

In turn, `O=C(COC(=O)/C=C/c1cccc([N+](=O)[O-])c1)Nc1cccnc1Cl` yielded a solubility (kinetic) of 2.1 µg/mL (≈ 5.81 µM).

`CCn1c(/C=C/c2ccccc2F)nc2ccccc2c1=O` returned a kinetic solubility of 2.2 µg/mL (≈ 7.47 µM). For `Cc1cc(Br)cc2c1N(C)C(=O)C2(c1ccc(O)cc1)c1ccc(O)cc1` the value was 7.4 µg/mL (≈ 17.4 µM); for `O=C(CCCc1nc2ccccc2s1)NCc1cccnc1`, greater than 46.7 µg/mL. Then `COc1ccc(C2C3(C#N)C(N)=NC(OC)(OC)C23C#N)cc1` (stereo not drawn), with greater than 46.8 µg/mL; and `C/C(=N\OCc1ccc(C#N)cc1)c1ccccc1`, with less than 0.3 µg/mL. `CSc1ccc(CNCC(O)c2ccccc2)cc1.Cl` (stereo not drawn) registered a kinetic solubility greater than 46.5 µg/mL. For `Cl.N#C/C(=C/c1cc(Cl)c(O)c(Cl)c1)C(=O)N1CCCCC1` the value was greater than 54.2 µg/mL; for `OC(CN1CCOCC1)Cn1cnc2ccccc21` (stereo not drawn), greater than 39.2 µg/mL; for `O=C(COC(=O)c1ccc([N+](=O)[O-])o1)Nc1ccc(N2CCOCC2)cc1`, 50.6 µg/mL (≈ 135 µM). Molecule `CCCOc1c(Cl)cc(C(=O)NC)cc1OC` came in with a solubility (kinetic) greater than 38.7 µg/mL. For `Fc1cccc(CN2CCC(Cc3ccccc3)CC2)c1` the value was 13.5 µg/mL (≈ 47.6 µM); for `O=C(CN1CCN(c2ccccc2F)CC1)c1ccc(O)cc1O`, 10.7 µg/mL (≈ 32.4 µM); for `Cc1cccc(C(=O)OCC(=O)NCC2CCCO2)c1O` (stereo not drawn), greater than 44 µg/mL.

Turning to `C=CCOc1ccccc1NC(=O)CN1C(=O)CNC1=O`, the kinetic solubility is greater than 43.4 µg/mL. For `O=C(Cc1ccccc1)N/N=C/c1ccc[nH]1` the value was greater than 34.1 µg/mL.

`Clc1ccccc1Sc1ccc(-c2ccccn2)s1` registered a kinetic solubility of less than 0.7 µg/mL. Then `O=C(Cc1ccc(Br)cc1)Nc1ccc(Cl)cc1`, with less than 0.7 µg/mL. For `COc1cc(C(=O)OCC2CC(c3ccccc3)=NO2)cc(OC)c1OC` (stereo not drawn) the value was 38.2 µg/mL (≈ 103 µM); for `COc1ccc(C(=O)Nc2ccc(NC(=O)C3CC3)cn2)cc1`, 5.8 µg/mL (≈ 18.6 µM); for `CN(Cc1ccco1)C(=O)CN1C(=O)NC2(CCCC2)C1=O`, 43 µg/mL (≈ 141 µM). Then `NS(=O)(=O)c1ccc(CCNC(=O)c2ccc(Cl)s2)cc1`, with 10.6 µg/mL (≈ 30.7 µM); and `Cn1c(=O)c2c(ncn2CCO)n(C)c1=O`, with greater than 33.6 µg/mL. `Cc1ccc(-n2c(C)cc(C(=O)CN3CCOCC3)c2C)cc1C` gave a kinetic solubility greater than 49 µg/mL.

In turn, `CCC(C)NC(=O)c1ccc(CN2CCc3ccccc3C2)cc1` (stereo not drawn) came in with a kinetic solubility of 7.1 µg/mL (≈ 22 µM).

On to `O=C(O)c1ccc(N=Cc2c(O)[nH]c(=O)[nH]c2=O)cc1`, for which the solubility (kinetic) was greater than 41.3 µg/mL.

As for `COC(=O)CNC(=O)/C=C/c1cc(Br)ccc1OC`, the kinetic solubility came out at 38.1 µg/mL (≈ 116 µM). Then `Cl.Nc1ncnc2nc[nH]c12`, with greater than 25.7 µg/mL; and `CCc1ccccc1NC(=O)N1CCc2ccccc21`, with 6.1 µg/mL (≈ 22.9 µM); and `O=C(CCc1ccc(S(=O)(=O)N2CCOCC2)cc1)OCC(=O)c1ccccc1`, with 7.6 µg/mL (≈ 18.2 µM).

With `Cc1cc(C)cc(OCC(=O)Nc2ccc(CN3CCCCC3)cc2)c1`, the solubility (kinetic) amounted to 49.9 µg/mL (≈ 142 µM). Compared with the last molecule, the solubility kinetic is about 6.6-fold higher.

`O=C(/C=C/c1ccc([N+](=O)[O-])cc1)OCC(=O)N1CCOCC1`: the kinetic solubility amounted to 10.1 µg/mL (≈ 31.5 µM). For `O=C(CCC(=O)c1ccccc1)Nc1ccccc1` the value was 22.5 µg/mL (≈ 88.8 µM); for `CSc1sc(-c2ccnc(=S)[nH]2)c(-c2ccccc2)c1C#N`, 8.2 µg/mL (≈ 24 µM). Then `CCCOC(=O)Nc1nc(-c2ccc(C)cc2)c(C)s1`, with 1.3 µg/mL (≈ 4.48 µM); and `O=c1c2ccccc2[nH]c2ccccc12`, with 4.7 µg/mL (≈ 24.1 µM); and `c1ccc(CN2CCc3nc4ccccc4cc3C2)cc1`, with 33.2 µg/mL (≈ 121 µM).

For `CCc1nc(SCc2ccccn2)[nH]c(=O)c1C`, the solubility (kinetic) is greater than 39.2 µg/mL. Then `O=C(CCc1c[nH]c2ccccc12)NCCc1ccccc1`, with 28.5 µg/mL (≈ 97.5 µM); and `COc1ccc(-c2csc(N=C(N)N)n2)cc1`, with 12.2 µg/mL (≈ 49.1 µM); and `CC(=O)c1sc(-c2ccccc2)cc1NS(=O)(=O)c1ccccc1`, with less than 0.8 µg/mL. In turn, `CCOC(=O)C1CCCN(S(=O)(=O)c2c(C)noc2C)C1` (stereo not drawn) returned a kinetic solubility greater than 47.5 µg/mL. For the molecule `Cc1ccccc1NC(=O)c1c([N+](=O)[O-])cnn1C`, the kinetic solubility is greater than 39 µg/mL. For `N/C(=N\OC(=O)Nc1ccccc1)c1ncc([N+](=O)[O-])s1` the value was 3.8 µg/mL (≈ 12.4 µM). For `O=C(COC(=O)c1cc(=O)[nH]c(=O)[nH]1)Nc1cccc(Cl)c1` the value was greater than 48.6 µg/mL; for `Cc1cc(SCC(=O)N2CCCC2=O)nc2ccccc12`, 11.2 µg/mL (≈ 37.3 µM); for `COc1ccc(Cl)cc1NC(=O)CN1c2ccccc2CC1C` (stereo not drawn), 2.2 µg/mL (≈ 6.65 µM). For `COc1ccc2ccc(OCC(=O)Nc3cc(C)on3)cc2c1` the value was 12.4 µg/mL (≈ 39.7 µM). As to `O=C1CC(Sc2cccs2)C(=O)N1c1ccccc1` (stereo not drawn), the kinetic solubility worked out at 41.7 µg/mL (≈ 144 µM).

What is called kinetic solubility is the concentration staying in solution when a stock, usually in DMSO, is diluted into the medium.

For the origin of these results see PubChem BioAssay AID1996.
